# Measurements published in ChEMBL document CHEMBL1914333, “Synthesis and evaluation of compounds that induce readthrough of premature termination codons” (Bioorg Med Chem Lett, 2011).
# Active and inactive are the calls of the source. The rule behind the calls is not given here.
# Target: T1, 80S Ribosome (Homo sapiens) (UniProt P08865+P42677+P62753+P15880+P23396+P61247+P62701+P22090+P46782+P62081+P62241+P46781+P46783+P62280+P25398+P62277+P62263+P62841+P62244+P62249+P08708+P62269+P39019+P60866+P63220+P62266+P62847+P62851+P62854+P62979+P62857+P62273+P62861+P39023+P36578+P46777+Q02878+P18124+P62424+P62917+P32969+P27635+P62906+P62913+P30050+P26373+P40429+P50914+P61313+P18621+Q07020+Q02543+P84098+P46778+P35268+P62829+P62750+P83731+P61254+P61353+P46776+P46779+P47914+P62888+P62899+P62910+P49207+P42766+P18077+Q9Y3U8+P83881+P61927+P61513+P63173+P62891+P62945+P05388+P05386)
# Experiment: Induction of ribosome to readthrough in human A-T lymphoblastoid cells assessed as ATM ser1981 autophosphorylation at 30 uM after 4 days by PTT-ELISA assay
# Type: subcellular
row,SMILES,Flu intensity
1,Nc1ccn(Cc2ccc(-c3ccccc3[N+](=O)[O-])o2)c(=O)n1,inactive
2,COc1ccccc1-c1ccc(/C=C2\SC(=S)NC2=O)o1,inactive
3,O=C1NC(=S)S/C1=C\c1cc2ccccc2[nH]1,inactive
4,COc1cccc(-c2ccc(/C=C3\SC(=N)NC3=O)o2)c1,1.9
5,N=C1NC(=O)/C(=C/c2c[nH]c(=O)[nH]c2=O)S1,5.32
6,O=c1ccn(Cc2ccc(-c3ccccc3[N+](=O)[O-])o2)c(=O)[nH]1,4.94
7,Cc1cn(Cc2ccc(-c3ccccc3[N+](=O)[O-])o2)c(=O)[nH]c1=O,inactive
8,N=C1NC(=O)/C(=C/c2ccc(-c3ccccc3Cl)o2)S1,inactive
9,O=c1ccn(Cc2ccc(-c3cccc(Cl)c3)o2)c(=O)[nH]1,5.07
10,N=C1NC(=O)/C(=C/c2cc3ccccc3[nH]2)S1,inactive
11,N=C1NC(=O)/C(=C/c2ccc(-c3ccccc3C(F)(F)F)o2)S1,inactive
12,COc1ccccc1-c1ccc(/C=C2\SC(=N)NC2=O)o1,inactive
13,O=C1NC(=S)S/C1=C\c1ccc(-c2ccccc2F)o1,2.86
14,N=C1NC(=O)/C(=C/c2ccc(-c3ccccn3)o2)S1,inactive
15,O=C1NC(=S)S/C1=C\c1ccc(-c2ccccn2)o1,inactive
16,O=c1ccn(Cc2ccc(-c3ccccc3)o2)c(=O)[nH]1,3.42
17,O=c1ccn(Cc2ccc(-c3ccccc3F)o2)c(=O)[nH]1,5.43
18,N=C1NC(=O)/C(=C/c2ccc(-c3ccccc3)o2)S1,inactive
19,O=c1[nH]c(=O)n(Cc2ccc(-c3ccccc3[N+](=O)[O-])o2)cc1F,2.08
20,Cc1cn(Cc2ccc(-c3ccccc3)o2)c(=O)[nH]c1=O,3.8
21,CN1C(=N)S/C(=C\c2ccc(-c3ccccc3[N+](=O)[O-])o2)C1=O,inactive

row,SMILES,Flu intensity
1,O=C1NC(=S)S/C1=C\c1ccc(-c2cccc(F)c2)o1,3.44
2,N=C1NC(=O)/C(=C/c2ccc(-c3cccc(Cl)c3)o2)S1,2.27
3,N=C1NC(=O)/C(=C/c2cn(Cc3ccc(-c4ccccc4[N+](=O)[O-])o3)c(=O)[nH]c2=O)S1,2.42
4,O=Cc1cn(Cc2ccc(-c3ccccc3[N+](=O)[O-])o2)c(=O)[nH]c1=O,2.24
5,N=C1NC(=O)/C(=C/c2cc3ccccc3o2)S1,inactive
6,Nc1nc(=O)n(Cc2ccc(-c3ccccc3[N+](=O)[O-])o2)cc1F,inactive
7,O=C1NC(=S)S/C1=C\c1ccc(-c2ccccc2Cl)o1,3.55
8,N=C1NC(=O)/C(=C/c2ccco2)S1,inactive
9,O=C1NC(=S)S/C1=C\c1c[nH]c2ccccc12,inactive
10,COc1cccc(-c2ccc(/C=C3\SC(=S)NC3=O)o2)c1,2.66
11,O=C1NC(=S)S/C1=C\c1ccc(-c2cccc(Cl)c2)o1,2.86
12,N=C1NC(=O)/C(=C/c2ccc(-c3ccccc3F)o2)S1,inactive
13,O=C1NC(=S)S/C1=C\c1cc2ccccc2o1,3.5
14,N=C1NC(=O)/C(=C/c2ccc(-c3ccccc3)s2)S1,inactive
15,O=C1NC(=S)S/C1=C\c1ccc(-c2ccccc2C(F)(F)F)o1,inactive
16,Cc1cn(Cc2ccc(-c3ccccc3F)o2)c(=O)[nH]c1=O,6.16
17,N=C1NC(=O)/C(=C/c2c[nH]c3ccccc23)S1,inactive
18,N=C1NC(=O)/C(=C/c2ccc(-c3ccccc3[N+](=O)[O-])o2)S1,3.27
19,N=C1NC(=O)/C(=C/c2ccc(-c3cccc(F)c3)o2)S1,inactive
20,O=C1NC(=S)S/C1=C\c1ccc(-c2ccccc2[N+](=O)[O-])o1,inactive

# Target: T1, 80S Ribosome (Homo sapiens)
# Experiment: Induction of ribosome to readthrough in human A-T lymphoblastoid cells assessed as irradiation-induced ATM Ser1981 nuclear foci formation at 30 uM after 4 days by PTT-ELISA
# Type: subcellular
row,SMILES,Activity
1,Nc1ccn(Cc2ccc(-c3ccccc3[N+](=O)[O-])o2)c(=O)n1,inactive
2,N=C1NC(=O)/C(=C/c2c[nH]c(=O)[nH]c2=O)S1,17%
3,O=c1ccn(Cc2ccc(-c3ccccc3[N+](=O)[O-])o2)c(=O)[nH]1,10.7%
4,Cc1cn(Cc2ccc(-c3ccccc3[N+](=O)[O-])o2)c(=O)[nH]c1=O,inactive
5,O=c1ccn(Cc2ccc(-c3cccc(Cl)c3)o2)c(=O)[nH]1,11.3%
6,O=c1ccn(Cc2ccc(-c3ccccc3)o2)c(=O)[nH]1,9.4%
7,O=c1ccn(Cc2ccc(-c3ccccc3F)o2)c(=O)[nH]1,20%
8,O=c1[nH]c(=O)n(Cc2ccc(-c3ccccc3[N+](=O)[O-])o2)cc1F,14.5%
9,Cc1cn(Cc2ccc(-c3ccccc3)o2)c(=O)[nH]c1=O,22.8%
10,N=C1NC(=O)/C(=C/c2cn(Cc3ccc(-c4ccccc4[N+](=O)[O-])o3)c(=O)[nH]c2=O)S1,18%
11,O=Cc1cn(Cc2ccc(-c3ccccc3[N+](=O)[O-])o2)c(=O)[nH]c1=O,16%
12,Nc1nc(=O)n(Cc2ccc(-c3ccccc3[N+](=O)[O-])o2)cc1F,inactive
13,Cc1cn(Cc2ccc(-c3ccccc3F)o2)c(=O)[nH]c1=O,9.6%
